Data: patent publication US20180000782A1, “THERAPEUTIC AGENT FOR KERATOCONJUNCTIVE DISORDERS” (priority 2012, published 2018)

Legend:
[1] = test system: normal rabbit primary keratocytes; assay: Suppression of three-dimensional collagen gel degradation in normal rabbit primary keratocytes (Example 1); assay type: cell-based; conditions: R667 0.1-1000 nM; stimulant 10 ng/ml and Plasminogen 60 μg/ml; 48 hours of culturing; FIG. 1
Procedure: Normal rabbit corneal cells were used to assess the suppression effect of a tested compound on three-dimensional collagen gel degradation in accordance with the method of Nishida et al (Investigative Ophthalmology & Visual Science 42: 1247-1253 (2001)).
Primary keratocytes collected from a normal rabbit eye ball was grown to a confluent state and detached from a culture slide with 0.05% Trypsin-EDTA. After washing in a serum free medium (product number 11095; Gibco), the number of cells were counted. The obtained primary keratocytes were mixed with the type I collagen solution Cellmatrix Type I-A (product number 637-00653; Nitta Gelatin Inc.) and Reconstitution Buffer (product number 635-00791; Nitta Gelatin Inc.) and dispensed into a 24-well plate so that the final concentration would be 1×10^5 cells/well to make a collagen gel. […]
After 48 hours of culturing, the supernatant was ultrafiltrated, 100 μl of concentrated hydrochloric acid was added and heated, and the collagen was hydrolyzed. […] The amount of hydroxyproline, which is the collagen degradation product in the solution, was measured in accordance with the method of Bergman et al (Analytical Chemistry 35(12): 1961-1965 (1963)) to assess the effect of suppressing collagen degradation of RARγ agonist A. The results are shown in FIG. 1.

[2] = test system: primary subconjunctival fibroblasts; assay: Suppression of three-dimensional collagen gel contraction, primary subconjunctival fibroblasts (Example 2); assay type: cell-based, rabbit; conditions: TGF-β1 1 ng/ml, RARγ agonist A 1, 10, 100 nM, after 48 hours, FIG. 2
Procedure: (§1) Primary subconjunctival fibroblasts and primary keratocytes were used to assess the suppression effect of a tested compound on three-dimensional collagen gel contraction in accordance with the method of Nishida et al. As in Example 1, primary subconjunctival fibroblasts were grown and detached from a culture slide. After washing, a cell suspension was made. The resulting suspension (1.1×10^7 cells/well MEM), type I collagen solution (5 mg/ml), 10×MEM, Reconstitution Buffer, and water were mixed on ice at 0.2:7:1:1:1.8 (volume ratio). A culture dish coated with 1% BSA was inoculated with 0.5 ml of the mixture, which was incubated for one hour at 37° C. to make a collagen gel. Then, 0.5 ml of serum free media, to which a certain amount (1 ng/ml) of TGF-β1 (R&D Systems) and RARγ agonist A at each of the concentrations 1 nM, 10 nM, and 100 nM were added, were each added onto the above-described gel. The gel, together with a gel to which an agent-free serum-free medium was added, was continuously incubated at 37° C. The diameter of gels was measured from the time when 24 hours has past.

[3] = test system: primary keratocytes; assay: Suppression of three-dimensional collagen gel contraction, primary keratocytes (Example 2); assay type: cell-based, rabbit; conditions: TGF-β1, FIG. 3
Procedure: as §1, with “past. The gel diameter was measured for primary keratocytes in a similar manner to the primary subconjunctival fibroblasts.” for “past.”

[4] = test system: primary keratocytes; assay: Suppression of three-dimensional collagen gel degradation in primary keratocytes by RARγ agonist A, B or C (Example 3); assay type: cell-based, rabbit; conditions: R667 1 nM, CD437 1 nM and 10 nM, BMS961 10 nM; stimulant IL-1β 10 ng/ml and Plasminogen 60 μg/ml; 48 hours; FIG. 4
Procedure: As in Example 1, primary keratocytes were grown and detached from a culture slide. After washing, a cell suspension was made. The resulting suspension (1.1×10^7 cells/well MEM), type I collagen solution (5 mg/ml), 10×MEM, Reconstitution Buffer, and water were mixed on ice at 0.2:7:1:1:1.8 (volume ratio). A culture dish coated with 1% BSA was inoculated with 0.5 ml of the mixture, which was incubated for one hour at 37° C. to make a collagen gel.
After 48 hours of culturing, collagen was hydrolyzed and the amount of hydroxyproline, which is the collagen degradation product, was measured by the same method as Example 1 to assess the effect of suppressing collagen degradation of each RARγ agonist.

[5] = test system: MMP-1; assay: Suppression of expression and activation of MMP-1, western blot of keratocyte supernatant; assay type: cell-based, rabbit; conditions: R667 1×10^−6 to 1×10^−2 μM, 12 hours of pre-treatment; 0.1 ng/ml, 24 hours; FIG. 5A
Procedure: (§2) It is believed that secretion or expression of protease, i.e., matrix metalloproteinases (MMP), is associated with the degradation of type I collagen. In this regard, suppression of expression and activation of MMP-1, 2, 3, and 9 by RARγ agonist A was investigated. Primary keratocytes collected from a normal rabbit eye ball were cultured for 24 hours in a serum-free MEM medium. RARγ agonist A ([…]) ([…] concentration: 1×10^-6 μM, 1×10^-5 μM, 1×10^-4 μM, 1×10^-3 μM, 1×10^-2 μM) was added to the obtained culture solution and 12 hours of pre-treatment was performed. As a positive control, 10 nM of dexamethasone (Dex), which is a synthetic steroid, was added and pre-treatment was similarly performed. Then, IL-113 (0.1 ng/ml) was added for stimulation, and the supernatant was collected after 24 hours. The following western blot analysis and gelatin zymography analysis were used on the collected culture solution. After developing the supernatant of the collected culture solution in SDS-PAGE using 10% polyacrylamide gel, the separated proteins were transferred onto a nitrocellulose filter. Then, non-specific sites on the nitrocellulose filter were blocked and incubated for 24 hours at 4° C. with anti-human MMP-1 antibodies (R&D Systems) and anti-rabbit MMP-3 antibodies (Daiichi Fine Chemical Co., Ltd). ECL® reagent (GE Healthcare) was used for detection.

[6] = test system: MMP-3; assay: Suppression of expression and activation of MMP-3, western blot of keratocyte supernatant; assay type: cell-based, rabbit; conditions: R667 1×10^−6 to 1×10^−2 μM, 12 hours of pre-treatment; IL-113 0.1 ng/ml, 24 hours; FIG. 5A
Procedure: as §2

[7] = test system: MMP-2; assay: Suppression of expression and activation of MMP-2, gelatin zymography of keratocyte supernatant; assay type: cell-based, rabbit; conditions: R667 1×10^−6 to 1×10^−2 μM, 12 hours of pre-treatment; 0.1 ng/ml, 24 hours; FIG. 5B
Procedure: (§3) It is believed that secretion or expression of protease, i.e., matrix metalloproteinases (MMP), is associated with the degradation of type I collagen. In this regard, suppression of expression and activation of MMP-1, 2, 3, and 9 by RARγ agonist A was investigated. Primary keratocytes collected from a normal rabbit eye ball were cultured for 24 hours in a serum-free MEM medium. RARγ agonist A ([…]) ([…] concentration: 1×10^-6 μM, 1×10^-5 μM, 1×10^-4 μM, 1×10^-3 μM, 1×10^-2 μM) was added to the obtained culture solution and 12 hours of pre-treatment was performed. As a positive control, 10 nM of dexamethasone (Dex), which is a synthetic steroid, was added and pre-treatment was similarly performed. Then, IL-113 (0.1 ng/ml) was added for stimulation, and the supernatant was collected after 24 hours. The following western blot analysis and gelatin zymography analysis were used on the collected culture solution. After developing the supernatant of the collected culture solution on SDS-PAGE using 10% polyacrylamide gel containing 0.1% of gelatin, it was incubated for one hour at room temperature with a TBS solution containing 2.5% Triton X-100. The gel after incubation was dyed with a solution of Coomassie Brilliant Blue (Wako Pure Chemical Industries, Ltd.) and decolored with a 5% methanol-7.5% acetic acid solution (Nacalai Tesque, Inc).

[8] = test system: MMP-9; assay: Suppression of expression and activation of MMP-9, gelatin zymography of keratocyte supernatant; assay type: cell-based, rabbit; conditions: R667 1×10^−6 to 1×10^−2 μM, 12 hours of pre-treatment; IL-113 0.1 ng/ml, 24 hours; FIG. 5B
Procedure: as §3

[9] = test system: male Japanese white rabbits; assay: Suppression of corneal opacity and ulceration, LPS injected into the corneal stroma; assay type: in vivo, rabbit; conditions: 0.1% R667 (24 mM), 50 μl instillation, four times daily until day 10; 1% LPS into the corneal stroma; FIG. 6B
Procedure: Systemic anesthesia was applied to male Japanese white rabbits (body weight 2.5-3.5 kg, 27 rabbits) by intramuscular administration of a solution of a mixture of ketamine and xylazine. Then, topical anesthesia was applied by a 0.4% oxybuprocaine hydrochloride instillation. Furthermore, 30 μl of 1% LPS (Sigma Aldrich) was injected into the corneal stroma of one eye, but not in the other eye.
50 μl of 0.1% PBS/0.1% polysorbate 80 solution containing RARγ agonist A (R667: 0.1%, 24 mM) was instillatively administered to the rabbits injected with LPS twice after the injection on the day of LPS injection and four times daily thereafter until day 10 by using a micropipette. As a control, a 0.1% PBS/0.1% polysorbate 80 solution free of RARγ agonist A (Vehicle) was similarly administered. FIGS. 6A and 6B show representative examples of a control and a case where RARγ agonist A was administered.

## CC1(C)CCC(C)(C)c2cc(Cn3cccn3)c(/C=C/c3ccc(C(=O)O)cc3)cc21 [RARγ agonist A, (E)-4-(2-{3-[(1H-pyrazole-1-yl)methyl]-5,5,8,8-tetramethyl-5,6,7,8-tetrahydronaphthalene-2-yl}vinyl)benzoic acid]
[1]
  effect of suppressing collagen degradation (amount of hydroxyproline): dosage-dependent effect of suppressing keratoconjunctive collagen degradation
[2]
  suppression of collagen gel contraction (diameter of collagen gel): can suppress
[3]
  suppression of collagen gel contraction (diameter of collagen gel): can suppress
[4]
  effect of suppressing collagen degradation (ratio of amount of hydroxyproline): exhibited an effect of suppressing keratoconjunctive collagen degradation
[5]
  expression and activation of MMP-1 (bands of Pro-MMP-1 and active MMP-1): concentration-dependently suppresses
[6]
  expression and activation of MMP-3 (bands of Pro-MMP-3 and active MMP-3): concentration-dependently suppresses
[7]
  expression and activation of MMP-2 (bands of Pro-MMP-2 and active MMP-2): concentration-dependently suppresses
[8]
  expression and activation of MMP-9 (bands of Pro-MMP-9 and active MMP-9): concentration-dependently suppresses
[9]
  corneal opacity and ulceration: corneal opacity and ulceration were not observed
